# Data taken from patent US10780094B2, “Use of carbonic anhydrase inhibitors for treatment of neurological and psychiatric disorders” (New York University, priority 2016, dated 2020).
# Experiments:
# [1] = system: TgSwDI mice; assay: Contextual fear conditioning; assay type: in vivo, mouse; settings: short-term treatment (3 months)
# [2] = system: mitochondrial CA; settings: reference (16); cited from earlier work
# [3] = system: TgSwDI mice; assay: Barnes Maze spatial memory testing; assay type: in vivo, mouse; settings: for behavioral phenotypes (Barnes maze): given with diet; for distance traveled, probe trial / mistakes, probe trial: in the diet for 8 months, 15-20 mg/kg/day; for distance traveled, probe trial / mistakes, probe trial / distance traveled in trial 10 (last trial): tested at 15-16 months; for distance traveled in trial 10 (last trial): treated for 8 months
# Excerpt: The Barnes Maze was used to provide an index of spatial learning and memory. The task capitalizes on the motivation of mice to seek refuge from loud, open and brightly-lit spaces. Mice were trained across a series of trials to successfully navigate to a hidden escape chamber using information provided by distal spatial cues. The Barnes Maze consists of a relatively large (36″ in diameter), circular platform with a beige textured surface that is elevated 36″ from the floor (San Diego Instruments, San Diego USA). The platform has twenty 2″ diameter holes that are equally spaced around the periphery of the platform (1″ from the edge). A grey plastic escape box (˜10 cm×8.5 cm×4 cm) is located under only one of the holes, the location of which is constant for each subject but variable across subjects and counterbalanced across groups. The surface of the Barnes maze is brightly-lit (500-600 lux), illuminated by an overhead lamp (60-100 W) placed approximated 30″ above the center of the platform. Visible distal cues were placed around the room and remained constant throughout the testing period. An overhead video camera and specialized software (Noldus Ethovision 11.5) was used to track the locomotor trajectories of the mice. Mice were trained for six consecutive daily testing sessions (2 trials/day for 5 days, and probe test on day 6).
# On each testing day, mice were brought to the testing room for a minimum of 30 mins prior to testing in order to acclimate to transport and testing room conditions. On the first day of testing, each mouse was gently removed from its home cage by the base of its tail and placed in the center of the platform and kept within an inverted 500 ml beaker for 1 min. A white noise generator (San Diego Instruments) was turned on (˜90-100 dB) when the mouse was placed onto the maze. After the 1-min period, the beaker was slowly moved (over the course of 1 min) to the target hole with the mouse freely moving but confined underneath. Care was taken not to catch the tail or paws of the mouse while moving the beaker. The mouse was then permitted, or was gently guided by the experimenter using the beaker, to enter the escape box and was given 2 min inside before being transported back to its home cage within the escape box. The white noise was turned off as soon as the mouse entered the escape box. The platform and start box were cleaned thoroughly with 30% ethanol and allowed to dry fully before each trial. To ensure that distal spatial cues rather than local intramaze cues were being used to help guide navigation to the escape box, the maze was rotated after each training trial and the escape box re-positioned to always be in the identical spatial location within the room.
# After the initial beaker trial, each mouse was given 2 training trials per day. During training trials, mice were placed in the center of the platform within an plastic 6″l×6″w×8″h start box. The white noise generator was turned on and, after 10-15 s delay, the start box was lifted. The mouse was permitted a maximum of 3 min to find the designated hole and escape box. When a mouse entered the escape box the white noise was turned off and they were given approximately 1 additional min inside the box before being transferred back to the home cage. […] A 90-120 min inter-trial interval separated the two training trials on each daily session.
# Twenty four hours after (Day 6) the fifth training session, a 3-min probe trial was given, conducted identically as the training trials but where the escape box had been removed. This probe was used to examine search behavior patterns and to help control for possible strategies that use local cues from the escape box.
# Spatial learning and memory was inferred based on the latency, distance and number of errors (other holes visited) that was required for the mouse to successfully navigate to the escape box. […]
# [4] = system: M059K Glioma cells; assay: Cell Death ELISAplus, Aβ-induced apoptosis (fragmented nucleosomes); assay type: cell-based, human; settings: for apoptosis in response to Aβ: Example 2, glial cells, FIG. 17C
# Description: The extent of apoptosis caused by Aβ in the presence or absence of MTZ was assessed by quantitation of nucleosome formation using Cell Death ELISA^plus (Roche Applied Science, Indianapolis, Ind.). Briefly, after incubation with the peptides, plates were centrifuged in a Beckman J-6B centrifuge (10 min; 1,000 rpm), cells lysed, and DNA-histone complexes (nucleosomes) quantitated by Cell Death ELISA, as previously described (Fossati et al., 2010).
# [5] = system: mitochondria isolated from SH-SY5Y neuronal cells; assay: Mitochondrial H2O2 production (Amplex Red) after Aβ challenge; assay type: cell-based, human; settings: for Aβ-induced H2O2 production: Example 2, both drugs at the proposed concentrations
# Description: Production of H2O2 from isolated mitochondria was measured using Amplex Red Hydrogen Peroxide/Peroxidase Assay (Life Technologies). Cells were treated with Aβ peptides, in the presence or absence of MTZ. After 16 hours of treatment, the mitochondrial fraction was separated from nuclear and cytoplasmic fractions as previously described (Fossati et al., 2013). Protein concentration in the mitochondrial fraction was measured by BCA assay (Thermo Scientific, Rockford, Ill.), in order to include the same amount of mitochondria in each sample. Functional mitochondrial fractions were distributed in a 96 well plate with Reaction Buffer and Amplex Red solution following the manufacturer's specifications. The plate was incubated in the dark at room temperature for 30 minutes before colorimetric evaluation of the Amplex Red reaction at 560 nm.
# Cells were plated on 6-wells plates and treated with the peptides and/or drugs for the experimental times. Plates were centrifuged for 10 min at 1.000 RPM and washed twice with PBS 1×. After that, 500 μL of homogenization buffer (75 mM sucrose, 225 mM mannitol, 5 mM Tris-HCl pH=7.4, 1 mM PMSF and protease inhibitor cocktail) was added. Cells were scraped in this buffer, collected in glass tubes and grinded exactly 80 times with a pellet pestle, keeping everything always on ice. Cells were then centrifuged at 2.800 RPM for 5 min at 4° C. The supernatant was collected and centrifuged again at 2.800 RPM for 5 min at 4° C. The supernatant was again collected and centrifuged at 10.500 RPM for another 5 min at 4° C. After this, the supernatant was discarded and the pellet was re-suspended in 100 μL of homogenization buffer. The samples were centrifuged again at 10.500 RPM for 10 min at 4° C., the supernatant was discarded and the pellets (mitochondrial fractions) were re-suspended on 50 μL of homogenization buffer. A protein concentration assay on mitochondrial protein was performed, using the Pierce BCA Protein Assay Kit (ThermoFisher, Waltham, Mass., US) and following the instructions provided by the manufacturer. After that, mitochondrial fractions containing equal amounts of mitochondrial proteins were placed on 96-wells microplate absorbance microtiter (ThermoFisher, Waltham, Mass., US) and the AmplexRed assay was ran, following the instructions provided by the manufacturer. Absorbance was measured by using a FlexStation (Molecular Devices, Sunnyvalem Calif., US).
Structure (SMILES),increase of freezing in contextual fear conditioning [1],activity on mitochondrial CA [2],behavioral phenotypes (Barnes maze) [3],"distance traveled, probe trial [3]","mistakes, probe trial [3]",distance traveled in trial 10 (last trial) [3],apoptosis in response to Aβ [4],Aβ-induced H2O2 production [5],"apoptotic phenotype caused by the Aβ peptides ([4]; 100 μM MTZ, Aβ42 10 μM or Aβ40-Q22 50 μM, 3 days)","Aβ-mediated increase in fragmented nucleosomes ([4]; 300 μM MTZ, Aβ42 10 μM or Aβ40-Q22 50 μM, 3 days)","Aβ-induced increase in H2O2 production by isolated mitochondria ([5]; Example 1, Aβ with MTZ)","H2O2 production, drug alone ([5]; MTZ alone, untreated cells)"
"CC(=O)Nc1nnc(S(N)(=O)=O)s1 [ATZ, acetazolamide]",normalizing effect,high activity,ameliorate behavioral phenotypes,not significantly higher than WT mice,not significantly higher than WT mice,not significantly higher than WT mice,prevented,completely reverted,–,–,–,–
"CC(=O)/N=c1/sc(S(N)(=O)=O)nn1C [MTZ, methazolamide]",normalizing effect,high activity,ameliorate behavioral phenotypes,not significantly higher than WT mice,not significantly higher than WT mice,not significantly higher than WT mice,prevented,completely reverted,completely reverted the apoptotic phenotype,completely prevented,completely reverted,did not have any effect
